Laboratory results: ChEMBL document CHEMBL1201862, “PubChem BioAssay data set” (2004)
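Dose response: 5 concentrations. Exposure: 48 h. Format: 96-well plates. Endpoint: linear interpolation; highest concentration if not reached. GI50: concentration for 50% inhibition of growth.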 Calls of active or inactive are those of the source. Rule as the data show it: active = GI50 up to about 1.1 µM and inactive = higher.

What was measured:
Test in all cases: DTP human tumour cell line panel, 48 h
HCT-15 = system: HCT-15
SK-MEL-2 = system: SK-MEL-2
SNB-19 = system: SNB-19
UACC-257 = system: UACC-257
SN12C = system: SN12C
U-251 = system: U-251
Malme-3M = system: Malme-3M
MOLT-4 = system: MOLT-4
SW-620 = system: SW-620
LOX IMVI = system: LOX IMVI
RPMI-8226 = system: RPMI-8226
CAKI-1 = system: CAKI-1
IGROV-1 = system: IGROV-1
HCT-116 = system: HCT-116
SK-OV-3 = system: SK-OV-3
SF-295 = system: SF-295
A498 = system: A498

Row | SMILES | GI50 (HCT-15) [µM] | GI50 (SK-MEL-2) | GI50 (SNB-19) | GI50 (UACC-257) | GI50 (SN12C) | GI50 (U-251) | GI50 (Malme-3M) | GI50 (MOLT-4) | GI50 (SW-620) | GI50 (LOX IMVI) | GI50 (RPMI-8226) | GI50 (CAKI-1) | GI50 (IGROV-1) | GI50 (HCT-116) | GI50 (SK-OV-3) | GI50 (SF-295) | GI50 (A498)
1 | Cc1cccc(-c2cc(=O)c3cc(C)c(C)c(C(=O)O)c3o2)c1 | > 100 | > 100 µM (inactive) | > 100 µM (inactive) | > 100 µM (inactive) | > 100 µM (inactive) | > 100 µM (inactive) | > 100 µM (inactive) | > 100 µM (inactive) | > 100 µM (inactive) | > 100 µM (inactive) | > 100 µM (inactive) | > 100 µM (inactive) | > 100 µM (inactive) | > 100 µM (inactive) | > 100 µM (inactive) | > 100 µM (inactive) | –
2 | CC1=C(C(=O)Nc2ccccc2C)C(c2ccccc2C)C(C(=O)Nc2ccccc2C)=C(C)N1 | 18.7 | 18.7 µM (inactive) | 22.6 µM (inactive) | 27.5 µM (inactive) | 18 µM (inactive) | 19.5 µM (inactive) | 18.2 µM (inactive) | > 10 µM (inactive) | 18.1 µM (inactive) | 15 µM (inactive) | 24 µM (inactive) | – | 18.5 µM (inactive) | 20.4 µM (inactive) | – | 20.1 µM (inactive) | 16.8 µM (inactive)
3 | O=C(c1ccccc1)C1OC12C(=O)Nc1c(Cl)cc(Cl)cc12 (stereo unspecified) | 24.3 | 99.1 µM (inactive) | 66.2 µM (inactive) | > 100 µM (inactive) | 27.2 µM (inactive) | 41.5 µM (inactive) | > 74.5 µM (inactive) | 10.2 µM (inactive) | 16.1 µM (inactive) | 23.4 µM (inactive) | 47.5 µM (inactive) | 24.8 µM (inactive) | > 59.4 µM (inactive) | 23.7 µM (inactive) | > 53 µM (inactive) | 47.2 µM (inactive) | > 92 µM (inactive)
4 | Cn1cc(C(=O)C[n+]2ccccc2)c2ccccc21 | > 100 | > 100 µM (inactive) | 52.8 µM (inactive) | > 100 µM (inactive) | 62.4 µM (inactive) | – | 69.7 µM (inactive) | 54.7 µM (inactive) | > 100 µM (inactive) | > 100 µM (inactive) | > 100 µM (inactive) | 30.3 µM (inactive) | 72.1 µM (inactive) | > 100 µM (inactive) | – | 38.4 µM (inactive) | 28.9 µM (inactive)
5 | COC(=O)C1C(C(=O)OC)C2C(=O)C3C(C(=O)OC)C(C(=O)OC)C3C(=O)C12 (stereo unspecified) | – | > 100 µM (inactive) | > 100 µM (inactive) | > 100 µM (inactive) | > 100 µM (inactive) | > 100 µM (inactive) | > 100 µM (inactive) | > 100 µM (inactive) | > 100 µM (inactive) | > 100 µM (inactive) | – | > 100 µM (inactive) | > 100 µM (inactive) | > 100 µM (inactive) | > 100 µM (inactive) | > 100 µM (inactive) | > 100 µM (inactive)
6 | Cc1ccc(S(=O)(=O)Nc2cccc(C)c2C)cc1 | 41.1 | – | > 100 µM (inactive) | 30.8 µM (inactive) | 55.1 µM (inactive) | 28.4 µM (inactive) | 96.8 µM (inactive) | 45.5 µM (inactive) | 86.7 µM (inactive) | 62.5 µM (inactive) | > 100 µM (inactive) | – | 82.4 µM (inactive) | 49.1 µM (inactive) | 56.9 µM (inactive) | 33.7 µM (inactive) | > 100 µM (inactive)
7 | O=C1NC(=S)NC(=O)C1=Cc1ccc[nH]1 | 2.87 | 19.7 µM (inactive) | 25.8 µM (inactive) | 20.9 µM (inactive) | 10.6 µM (inactive) | 27.1 µM (inactive) | 19.9 µM (inactive) | 16.2 µM (inactive) | 4.81 µM (inactive) | 9.06 µM (inactive) | 3.41 µM (inactive) | 11.2 µM (inactive) | 19.6 µM (inactive) | 3.48 µM (inactive) | > 100 µM (inactive) | 10.5 µM (inactive) | 35.2 µM (inactive)
8 | C[N+]1=c2c3cccc4cccc(c(=O)n2CCC1)c43 | 35.6 | 16.6 µM (inactive) | – | 17.3 µM (inactive) | 21 µM (inactive) | 29.9 µM (inactive) | 18 µM (inactive) | 19.9 µM (inactive) | 25.2 µM (inactive) | 15.3 µM (inactive) | 19.6 µM (inactive) | 31 µM (inactive) | 36 µM (inactive) | 16.1 µM (inactive) | 27.5 µM (inactive) | 40.4 µM (inactive) | 18.5 µM (inactive)
9 | Oc1c(Cl)c2nccnc2c2ccccc12 | > 100 | > 100 µM (inactive) | – | > 100 µM (inactive) | > 100 µM (inactive) | > 100 µM (inactive) | > 100 µM (inactive) | > 100 µM (inactive) | > 100 µM (inactive) | – | > 100 µM (inactive) | – | > 100 µM (inactive) | > 100 µM (inactive) | > 100 µM (inactive) | > 100 µM (inactive) | > 100 µM (inactive)
10 | COC(=O)CCC1=NOC(CC2CC(CCC(=O)OC)=NO2)C1 (stereo unspecified) | > 100 | > 100 µM (inactive) | > 100 µM (inactive) | > 100 µM (inactive) | > 100 µM (inactive) | > 100 µM (inactive) | > 100 µM (inactive) | > 100 µM (inactive) | > 100 µM (inactive) | > 100 µM (inactive) | > 100 µM (inactive) | > 100 µM (inactive) | > 100 µM (inactive) | > 100 µM (inactive) | > 100 µM (inactive) | > 100 µM (inactive) | > 100 µM (inactive)
11 | O=C1NC(=O)c2c1n(Cc1ccccc1)c(=O)n2Cc1ccccc1 | 77.8 | > 100 µM (inactive) | > 100 µM (inactive) | > 100 µM (inactive) | > 100 µM (inactive) | > 100 µM (inactive) | > 100 µM (inactive) | > 100 µM (inactive) | > 100 µM (inactive) | > 100 µM (inactive) | 53.2 µM (inactive) | > 100 µM (inactive) | > 100 µM (inactive) | > 100 µM (inactive) | > 100 µM (inactive) | > 100 µM (inactive) | 30.4 µM (inactive)
12 | N#C[C@]12CC3(CC[C@H]1CC1(C2)OCCO1)OCCO3 | > 100 | > 100 µM (inactive) | > 100 µM (inactive) | > 100 µM (inactive) | > 100 µM (inactive) | > 100 µM (inactive) | > 100 µM (inactive) | > 100 µM (inactive) | > 100 µM (inactive) | – | > 100 µM (inactive) | > 100 µM (inactive) | > 100 µM (inactive) | > 100 µM (inactive) | > 100 µM (inactive) | – | > 100 µM (inactive)
13 | Cc1noc2c1C(=O)CCC2 | – | > 100 µM (inactive) | – | > 100 µM (inactive) | > 100 µM (inactive) | – | > 100 µM (inactive) | > 100 µM (inactive) | > 100 µM (inactive) | > 100 µM (inactive) | > 100 µM (inactive) | > 100 µM (inactive) | – | > 100 µM (inactive) | > 100 µM (inactive) | – | –
14 | NC1C2(CCCCCC2)NC(=O)C12CCCCCC2 (stereo unspecified) | > 100 | > 100 µM (inactive) | > 100 µM (inactive) | > 100 µM (inactive) | > 100 µM (inactive) | > 100 µM (inactive) | > 100 µM (inactive) | > 100 µM (inactive) | > 100 µM (inactive) | > 100 µM (inactive) | – | > 100 µM (inactive) | > 100 µM (inactive) | > 100 µM (inactive) | > 100 µM (inactive) | > 100 µM (inactive) | > 100 µM (inactive)
15 | CCOC(=O)c1[nH]c(CN(C)Cc2[nH]c(C(=O)OCC)c(C)c2C(=O)OCc2ccccc2)c(C(=O)OCc2ccccc2)c1C | 8.3 | – | 12.9 µM (inactive) | 21.4 µM (inactive) | 6.19 µM (inactive) | 12.1 µM (inactive) | 40.3 µM (inactive) | > 100 µM (inactive) | 12.7 µM (inactive) | 4.75 µM (inactive) | – | 2.85 µM (inactive) | 27.4 µM (inactive) | 7 µM (inactive) | – | 19.3 µM (inactive) | 15 µM (inactive)
16 | C[N+]12c3ccccc3O[B-]1(c1ccccc1)Oc1ccccc12 (stereo unspecified) | – | – | 66.1 µM (inactive) | 27.1 µM (inactive) | 31.9 µM (inactive) | 16.6 µM (inactive) | 40 µM (inactive) | 5.74 µM (inactive) | 28.1 µM (inactive) | 16.1 µM (inactive) | 37.4 µM (inactive) | 63.1 µM (inactive) | 25.4 µM (inactive) | 38.5 µM (inactive) | 33.7 µM (inactive) | 41 µM (inactive) | > 100 µM (inactive)
17 | CNC1=Nc2ccc(Cl)cc2C(c2ccccc2)=NN1C | > 100 | 73.5 µM (inactive) | > 100 µM (inactive) | 83 µM (inactive) | > 100 µM (inactive) | > 100 µM (inactive) | 42.9 µM (inactive) | 36.2 µM (inactive) | > 100 µM (inactive) | 60.4 µM (inactive) | 31.3 µM (inactive) | 28.5 µM (inactive) | > 100 µM (inactive) | 66.7 µM (inactive) | – | 84.7 µM (inactive) | 91.2 µM (inactive)
18 | O=C(Cc1nc(-c2ccccc2)cc(=O)n1-c1ccccc1Cl)c1ccncc1 | > 100 | > 100 µM (inactive) | > 100 µM (inactive) | > 100 µM (inactive) | > 100 µM (inactive) | > 100 µM (inactive) | > 100 µM (inactive) | – | > 100 µM (inactive) | > 100 µM (inactive) | – | > 100 µM (inactive) | > 100 µM (inactive) | > 100 µM (inactive) | > 100 µM (inactive) | > 100 µM (inactive) | > 100 µM (inactive)
